The structures appear in SMILES notation.

Experimental findings from ChEMBL document CHEMBL1150424, “Novel azabicyclo[3.2.2]nonane derivatives and their activities against Plasmodium falciparum K1 and Trypanosoma brucei rhodesiense” (Bioorg Med Chem, 2008) are described below.

Assay [1] relates to Plasmodium falciparum. Kind of assay: Antiplasmodial activity against chloroquine and pyrimethamine-resistant Plasmodium falciparum K1 after 48 hrs. The format is functional, organism-based. To be noted: K1, 48 h.
Assay [2] concerns Trypanosoma brucei rhodesiense. Put plainly: Antitrypanosomal activity against Trypanosoma brucei rhodesiense STIB 900 after 72 hrs by microplate alamar blue assay. It counts as functional, organism-based. To be noted: STIB 900, 72 h. (In general: The colour change of resazurin is a common sign of viable cells or microbes.)
Assay [3] concerns L6. Put plainly: Cytotoxicity against rat L6 cells after 72 hrs by microplate alamar blue assay. It counts as cell-based. Conditions: L6, 72 h.
A short description of assay [4]: Selectivity index, Ratio of IC50 for L6 cells to IC50 for Trypanosoma brucei rhodesiense STIB 9. The format is functional.
Assay [5] is described as follows: Selectivity index, Ratio of IC50 for L6 cells to IC50 for Plasmodium falciparum K1. It counts as functional.

Usually IC50 stands for the midpoint of a concentration-inhibition curve. High values mean lower potency, low ones higher potency. On to `C[C@@H]1CC[C@H]2[C@@H](C)C(=O)O[C@@H]3O[C@@]4(C)CC[C@@H]1[C@]32OO4` [ARTEMISININ], for which the IC50 in assay [1] is 6.4 nM.

With `CN(C)C12CCNC(C(c3ccc(Cl)c(Cl)c3)C1)C(c1ccc(Cl)c(Cl)c1)C2` (racemic), the IC50 stood at 90 nM in assay [2], 6440 nM in assay [3] and 400 nM in assay [1]. Besides, the “Ratio IC50” value in assay [4] is recorded as 71.56; in assay [5], 16.1.

Regarding `CN(C)C12CCNC(C(c3cccc4ccccc34)C1)C(c1cccc3ccccc13)C2` (racemic), the IC50 in assay [2] was determined as 110 nM; in assay [3], 6470 nM; in assay [1], 480 nM. In addition, the “Ratio IC50” value is given as 58.82 in assay [4] and 13.48 in assay [5].

Take `Clc1ccc(C2CC3(N4CCCCC4)CCNC2C(c2ccc(Cl)c(Cl)c2)C3)cc1Cl` (racemic): the IC50 was 160 nM in assay [2], 8870 nM in assay [3] and 540 nM in assay [1]. Also, the results for the “Ratio IC50” value in assay [4] and in assay [5] were 55.44 and 16.43, respectively.

Turning to `CN(C)C12CCNC(C(c3ccc(Br)cc3)C1)C(c1ccc(Br)cc1)C2` (racemic), the IC50 in assay [2] is 87 nM; in assay [3], 9030 nM; in assay [1], 340 nM. In addition, the “Ratio IC50” value was 103.9 in assay [4] and 26.56 in assay [5].

As for `CN(C)C12CCN(CCN)C(C(c3ccc(Cl)cc3)C1)C(c1ccc(Cl)cc1)C2` (racemic), the figures for the IC50 in assay [2], in assay [3] and in assay [1] were 500 nM, 10200 nM and 900 nM, respectively. For the same molecule, the “Ratio IC50” value turned out to be 20.44 in assay [4] and 11.36 in assay [5].

With `NCCN1CCC2(N3CCCCC3)CC(c3ccc(Cl)cc3)C1C(c1ccc(Cl)cc1)C2` (racemic), the IC50 in assay [2] came out at 76 nM; in assay [3], 3370 nM; in assay [1], 150 nM. Moreover, the “Ratio IC50” value is on record as 44.34 in assay [4] and 22.47 in assay [5].

With `Cc1ccc(C2CC3(N(C)C)CCNC2C(c2ccc(C)cc2)C3)cc1` (racemic), the IC50 came out at 120 nM in assay [2], 40500 nM in assay [3] and 450 nM in assay [1]. Besides, the “Ratio IC50” value came to 337.2 in assay [4] and 89.91 in assay [5].

Take `CN(C)C12CCNC(C(c3ccc(C(F)(F)F)cc3)C1)C(c1ccc(C(F)(F)F)cc1)C2` (racemic): the results for the 50% inhibitory concentration (IC50) in assay [2], in assay [3] and in assay [1] were 80 nM, 9440 nM and 850 nM, respectively. In addition, the “Ratio IC50” value in assay [4] came to 118; in assay [5], 11.11.

Take `OCCN1CCC2(N3CCCCC3)CC(c3ccc(Cl)cc3)C1C(c1ccc(Cl)cc1)C2` (racemic): the IC50 stood at 670 nM in assay [2], 9690 nM in assay [3] and 700 nM in assay [1]. Besides, the “Ratio IC50” value came to 14.46 in assay [4] and 13.84 in assay [5].

Take `CCOC(=O)CN1CCC2(N3CCCCC3)CC(c3ccc(Cl)cc3)C1C(c1ccc(Cl)cc1)C2` (racemic): the results for the IC50 in assay [2], in assay [3] and in assay [1] were 2190 nM, 13100 nM and 1010 nM, respectively. Besides, the “Ratio IC50” value in assay [4] is given as 5.97; in assay [5], 12.94.

Turning to `CCOC(=O)CN1CCC2(N(C)C)CC(c3ccc(Cl)cc3)C1C(c1ccc(Cl)cc1)C2` (racemic), the 50% inhibitory concentration (IC50) in assay [2] is 1780 nM; in assay [3], 5120 nM; in assay [1] it was 700 nM. The figures for the “Ratio IC50” value in assay [4] and in assay [5] were 2.88 and 7.31, respectively.

For the molecule `CN(C)C12CCNC(C(c3ccc(F)cc3)C1)C(c1ccc(F)cc1)C2` (racemic), the values for the IC50 in assay [2], in assay [3] and in assay [1] were 440 nM, 186000 nM and 890 nM, respectively. For the same molecule, the entries for the “Ratio IC50” value in assay [4] and in assay [5] were 422.7 and 209, respectively.

In assay [2], `CN(C)C12CCNC([C@H](c3ccccc3)C1)[C@H](c1ccccc1)C2` came in with an IC50 of 600 nM.

With `COc1ccc(C2CC3(N(C)C)CCNC2C(c2ccc(OC)cc2)C3)cc1` (racemic), the 50% inhibitory concentration (IC50) turned out to be 670 nM in assay [2], 117000 nM in assay [3] and 2690 nM in assay [1]. Besides, the “Ratio IC50” value in assay [4] came to 174.7; in assay [5] it was 43.52.

`Clc1ccc(C2CC3(N4CCCC4)CCNC2C(c2ccc(Cl)c(Cl)c2)C3)cc1Cl` (racemic): the values for the IC50 in assay [2], in assay [3] and in assay [1] were 150 nM, 6870 nM and 280 nM, respectively. In addition, the “Ratio IC50” value in assay [4] came to 45.8; in assay [5] it was 24.54.

For `CN(C)C12CCN(CC(N)=O)C(C(c3ccc(Cl)cc3)C1)C(c1ccc(Cl)cc1)C2` (racemic), the IC50 in assay [2] amounted to 910 nM; in assay [3], 25500 nM; in assay [1], 1110 nM. The “Ratio IC50” value in assay [4] turned out to be 28.07; in assay [5] it was 23.01.

`NC(=O)CN1CCC2(N3CCCC3)CC(c3ccc(Cl)cc3)C1C(c1ccc(Cl)cc1)C2` (racemic): the figures for the IC50 in assay [2], in assay [3] and in assay [1] were 760 nM, 23900 nM and 830 nM, respectively. The figures for the “Ratio IC50” value in assay [4] and in assay [5] were 31.45 and 28.8, respectively.

As to `NCCN1CCC2(N3CCCC3)CC(c3ccc(Cl)cc3)C1C(c1ccc(Cl)cc1)C2` (racemic), the IC50 in assay [2] amounted to 210 nM; in assay [3] it was 4650 nM; in assay [1] it was 320 nM. Further, the “Ratio IC50” value in assay [4] was found to be 22.14; in assay [5], 14.53.

As to `NC(=O)CN1CCC2(N3CCCCC3)CC(c3ccc(Cl)cc3)C1C(c1ccc(Cl)cc1)C2` (racemic), the IC50 in assay [2] worked out at 990 nM; in assay [3], 23800 nM; in assay [1], 1570 nM. For the same molecule, the “Ratio IC50” value is reported as 24 in assay [4] and 15.13 in assay [5].
